Laboratory results taken from patent US20230348362A1, “LIPID COMPOUNDS AND LIPID NANOPARTICLE COMPOSITIONS” (Suzhou Abogen Biosciences Co., Ltd., priority 2021, published 2023).

How the values were obtained:
Format in all cases: physicochemical
[1] = Lipid nanoparticle size and polydispersity by dynamic light scattering; conditions: LNP of lipid/DSPC/cholesterol/PEG-lipid 50:10:38.5:1.5 encapsulating hEPO mRNA
Method in brief: (§1)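 LNPs made from ionizable lipid/DSPC/cholesterol/PEG-lipid (50:10:38.5:1.5) and mRNA in citrate pH 4 by microfluidic mixing, lipid:mRNA about 10:1–30:1 w/w, then dialysed into DPBS and filtered. Size and PDI measured by DLS in backscatter mode; encapsulation efficiency measured by RiboGreen assay.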

[2] = Encapsulation efficiency of lipid nanoparticles, Quant-it Ribogreen RNA assay; conditions: LNP of lipid/DSPC/cholesterol/PEG-lipid 50:10:38.5:1.5 encapsulating hEPO mRNA
Method in brief: as §1

[3] = Apparent pKa of LNP formulations, TNS fluorescence assay; conditions: LNP cationic lipid/DSPC/cholesterol/DMG-PEG 50/10/38.5/1.5 mol %
Method in brief: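 LNPs (cationic lipid/DSPC/cholesterol/DMG-PEG 50/10/38.5/1.5 mol %) diluted to 0.1 mg/mL total lipid in citrate/phosphate/borate/NaCl buffers spanning pH 3–9 with TNS. Fluorescence (ex 325, em 435 nm) read at room temperature; pKa taken as the pH at half-maximal intensity from sigmoidal fit.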

Compound	polydispersity [1]	size (nm) [1]	Encapsulation Efficiency [2]	Apparent Pka [3]
CCCCCCCCC(CCCCCC)CNC(=O)CCCCCN(CC=C(C)C)CCN(CCO)CCCCC1COC(C(CCCCCC)CCCCCCCC)OC1 (stereo not drawn) [Compound 150]	0.076	76.37 nm	91.34%	6.586
CCCCCCCCC(CCCCCC)CNC(=O)CCCCCN(CCOCCO)CCN(CCCCC(COC(=O)CCCCCCC)COC(=O)CCCCCCC)C1CCCCCC1 (stereo not drawn) [Compound 207]	0.071	87.97 nm	87.94%	6.657
CCCCCCCCC(CCCCCCCC)COC(=O)CCCCCN(CCNc1c(NC)c(=O)c1=O)CCN(CCCCCC(=O)OCC(CCCCCCCC)CCCCCCCC)C1CCC1 [Compound 81]	0.051	55.27 nm	91.82%	6.298
CCCCCCCC(=O)OCC(CCCCN(CCO)CCN(CCCCC(COC(=O)CCCCCCC)COC(=O)CCCCCCC)C1CCCCCCC1)COC(=O)CCCCCCC [Compound 161]	0.090	72.08 nm	87.54%	6.02
CCCCCCCCC(CCCCCC)CNC(=O)CCCCCCCN(CCO)CCN(CCCCC(COC(=O)CCCCCCC)COC(=O)CCCCCCC)C1CCCC1 (stereo not drawn) [Compound 234]	0.035	67.07 nm	88.68%	6.566
CCCCCCCCCCCOC(=O)CCCCCN(CCN(CCO)CCCCCOC(=O)OCC(CCCCCCCC)CCCCCCCC)C1CCCCC1 [Compound 128]	0.093	60.57 nm	92.31%	6.539
CCCCCCCCC(CCCCCCCC)COC(=O)CCCCCN(CCO)CCN(CCCCCC(=O)OCC(CCCCCCCC)CCCCCCCC)C1CCC(C)(C)CC1 [Compound 31]	0.092	54.55 nm	88.2%	5.708
CCCCCCCC(=O)OCC(CCCCN(CCO)CCCCN(CCCCC(COC(=O)CCCCCCC)COC(=O)CCCCCCC)C1CCCCC1)COC(=O)CCCCCCC [Compound 185]	0.111	75.27 nm	90.39%	6.593
CCCCCCCCCCCOC(=O)CCCCCN(CCN(CCO)CCCCCC(=O)OCC(CCCCCCCC)CCCCCCCC)C1CCCCCC1 [Compound 107]	0.121	55.62 nm	93.22%	6.411
CCCCCCCCC(CCCCCC)COC(=O)CCCCCN(CC=C(C)C)CCN(CCO)CCCCC1COC(C(CCCCCC)CCCCCCCC)OC1 (stereo not drawn) [Compound 151]	0.064	61.84 nm	92.43%	6.368
CCCCCCCCC(CCCCCC)CNC(=O)CCCCCN(CCCCCO)CCN(CCCCC(COC(=O)CCCCCCC)COC(=O)CCCCCCC)C1CCCC1 (stereo not drawn) [Compound 224]	0.027	104.1 nm	85.65%	6.748
CCCCCCCC(=O)OCC(CCCCN(CC=C(C)C)CCCCN(CCO)CCCCC(COC(=O)CCCCCCC)COC(=O)CCCCCCC)COC(=O)CCCCCCC [Compound 203]	0.16	131.9 nm	78.17%	6.874
